Results on nine molecules are retold here after US20100160356A1, “NOVEL CYCLOBUTYL COMPOUNDS AS KINASE INHIBITORS” (priority 2006, published 2010).

Values after ≈ are worked out from the molar mass of the structure shown.

One data set has as its target VEGF-2 (Homo sapiens, UniProt P35968). The experiment in a line: Inhibition of VEGF-2 (flashplate assay). The class given is biochemical. As to conditions: flashplate method. The protocol: (§1) The test plates used are 384-well flashplate microtitre plates from Perkin Elmer (USA). The components of the kinase reaction are pipetted into the assay plate. The VEGF-2 kinase is incubated for 3 hr. with radioactively labelled ^33P-ATP in the presence and absence of test substances in a total volume of 100 μl at room temperature together with biotinylated poly(Glu, Tyr)4:1. The reaction is terminated using 25 μl of a 200 mM EDTA solution. After incubation for a further 30 min at room temperature, the supernatants are removed by suction, and the wells are washed three times with 100 μl of 0.9% NaCl solution each time. The radioactivity is measured using a Topcount scintillation counter (PerkinElmer, USA). IC50 values are calculated using the RS1 computer program.

A further data set addresses PDGFRβ (Homo sapiens, UniProt P09619). The experiment in a line: Inhibition of PDGFRβ (flashplate assay). The class given is biochemical. As to conditions: flashplate method. The protocol: as §1, with “are 96-well” for “are 384-well”, “The PDGFRβ” for “The VEGF-2”, “temperature (here autophosphorylation of the kinase).” for “temperature together with biotinylated poly(Glu, Tyr)4:1.”, “using 150” for “using 25”, “a 60” for “a 200”, “with 200” for “with 100”

The target of a further data set is IGF1R (Homo sapiens, UniProt P08069). The experiment in a line: Inhibition of IGF1R (flashplate assay). The class given is biochemical. The settings on record: flashplate method. The protocol:
as §1, with “are 96-well” for “are 384-well”, “The IGF1R” for “The VEGF-2”, “for 1” for “for 3”

For the next data set, the target named is T1, TGFβR1 (Homo sapiens, UniProt P36897).
T1 sequence (P36897 34-503): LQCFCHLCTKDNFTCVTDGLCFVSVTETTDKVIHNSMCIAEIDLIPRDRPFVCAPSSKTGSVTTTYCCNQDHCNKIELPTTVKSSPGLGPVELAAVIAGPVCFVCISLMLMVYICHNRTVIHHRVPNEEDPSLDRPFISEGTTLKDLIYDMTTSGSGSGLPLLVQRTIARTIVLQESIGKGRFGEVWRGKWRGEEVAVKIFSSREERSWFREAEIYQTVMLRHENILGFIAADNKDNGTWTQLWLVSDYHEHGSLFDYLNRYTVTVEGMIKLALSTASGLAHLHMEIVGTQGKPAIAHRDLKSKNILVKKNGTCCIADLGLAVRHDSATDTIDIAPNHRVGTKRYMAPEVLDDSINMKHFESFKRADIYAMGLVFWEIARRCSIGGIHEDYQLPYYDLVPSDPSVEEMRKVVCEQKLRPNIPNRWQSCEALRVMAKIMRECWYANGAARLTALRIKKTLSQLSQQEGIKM
The experiment in a line: Inhibition of TGFβR1 (flashplate assay). It counts as biochemical. The settings on record: flashplate method. The protocol:
The test is carried out as described in Example B1b for IGF1R. A biotinylated is added to the TGFβR1 kinase.
The kinase assay is carried out as a 384-well flashplate assay.
The components of the kinase reaction are pipetted into the assay plate. The TGFβR1 kinase is incubated for 45 min with radioactively labelled ^33P-ATP in the presence and absence of test substances together with biotinylated substrate in a total volume of 35 μl. The reaction is terminated using 25 μl of 200 mM EDTA solution, removed by suction after 30 min at room temperature, and the wells are washed with three times with 100 μl of 0.9% NaCl solution each time. The radioactivity is measured using a Topcount scintillation counter (PerkinElmer, USA). IC50 values are calculated using the RS1 computer program.

A short description of data set [1]: Solubility in phosphate buffer by the shake flask method. The class given is physicochemical. As to conditions: 37 °C, pH 7, aqueous buffer, thermodynamic from solid, pH 7.0, 37° C., 24 h shake flask. On the procedure:
The procedure described in Glomme et al. (J. Pharm. Sci. 94(1): 1-16, 2005) is followed. The concentration determination is carried out by HPLC with UV detection against a standard solution.
Buffer: 3.954 g of sodium dihydrogenphosphate monohydrate 6.024 g of sodium chloride +950 ml of ultrapure water. Setting of pH 7.0 using 0.1 M NaOH or 0.1 M HCl.
The samples were shaken at 37° C. and 450 rpm for 24 h. After about 7 h, the pH of the samples was checked and adjusted if necessary. It was checked whether the sample was still present in excess. Just before the end of the 24 h shaking time, the samples were again checked for pH and a precipitate.
• Ultrapure water plant: MilliQ gradient, Millipore, unit: F3PN37462D • Shaker: TiMix control, Bühler • Incubation hood: TH 15, Bühler • pH meter: 766 Calimatic Knick instrument: pH 1 • pH electrode: InLab 423 Mettler • HPLC: column: LiChroCart 125-4 LiChrospher 100 RP-18 • flow rate: 1.000 ml/min • eluents: • eluent A: 2 ml of diethylamine, for synthesis+1000 ml of methanol, LiChrosolv • eluent B: 5 g of ammonium acetate, for analysis+5 ml of methanol, LiChrosolv+995 ml of ultrapure water

The target in another data set is TIE2 (Homo sapiens, UniProt Q02763). The experiment in a line: Inhibition of TIE2 (flashplate assay). The settings on record: flashplate method. It counts as biochemical. The protocol:
B4: inhibition of T1E2 (Flashplate Assay)
as §1, with “TIE2” for “VEGF-2”

The target in the next data set is T2, SGK1 (Homo sapiens, UniProt O00141).
T2 sequence (O00141 1-431): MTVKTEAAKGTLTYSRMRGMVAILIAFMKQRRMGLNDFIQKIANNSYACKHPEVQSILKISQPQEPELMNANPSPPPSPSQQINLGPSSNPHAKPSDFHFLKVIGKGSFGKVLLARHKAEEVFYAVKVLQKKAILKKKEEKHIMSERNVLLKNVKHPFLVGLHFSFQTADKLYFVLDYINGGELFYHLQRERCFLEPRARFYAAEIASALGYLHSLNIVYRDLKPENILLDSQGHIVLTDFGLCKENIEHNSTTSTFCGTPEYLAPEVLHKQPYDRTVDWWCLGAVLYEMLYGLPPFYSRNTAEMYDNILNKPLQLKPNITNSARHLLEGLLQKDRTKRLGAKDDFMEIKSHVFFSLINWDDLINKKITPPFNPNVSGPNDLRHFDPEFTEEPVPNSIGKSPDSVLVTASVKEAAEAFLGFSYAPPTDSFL
The experiment in a line: Inhibition of SGK1 (flashplate assay). It counts as biochemical. As to conditions: flashplate method. On the procedure:
as §1, with “SGK1” for “VEGF-2”

The next data set has as its target T3, IGF1 receptor (IGF1R) (Homo sapiens, UniProt P08069).
T3 construct: endogenous in cells; host or cells: MCF-7 or Calu-6
The experiment in a line: Inhibition of IGF1R (ELISA assay), IGF1-stimulated autophosphorylation in cells. It counts as cell-based. The settings on record: human tumour cells stimulated with IGF1, read-out: IC50 IGF (ELISA). The protocol:
The stimulation induces an autophosphorylation of tyrosine residues in the cytoplasmatic IGF1R domain, which triggers signal transduction cascades, which result in inhibition of apoptosis and proliferation of the cells.
The amount of phosphorylated IGF1R is determined by a receptor-specific capture ELISA or an analogous LUMINEX assay. The IGF1R from cell lysates is bound to a 96-well ELISA plate or LUMINEX beads by means of a specific antibody (“capturing”), and the tyrosine phosphorylation is detected using a biotin-labelled anti-phosphotyrosine antibody and a streptavidin-peroxidase conjugate by a chemiluminescence method or by means of a fluorescence-labelled anti-phosphotyrosine antibody.
For determination of the activity of kinase inhibitors, cells are pretreated with increasing concentrations of these compounds for 45 min and subsequently stimulated using IGF1 for 5 min. As internal control, the biological activity of the ligand IGF1 is checked, and a concentration series of an IGF1R reference inhibitor is measured.
For orientation: In an ELISA, binding on a coated surface is turned into a signal by an enzyme label.

For data set [2], the target named is T4, FAK (focal adhesion kinase) (Homo sapiens, UniProt Q05397).
T4 construct: endogenous in cells; host or cells: Calu-6 or HT-29
The experiment in a line: Inhibition of FAK (ELISA assay), FAK phosphorylation in cells. It counts as cell-based. As to conditions: human cells with FAK amplification. On the procedure:
Activated FAK promotes the invasive growth of tumour cells and inhibits anoikis.
The amount of phosphorylated FAK is determined by a specific capture ELISA or an analogous LUMINEX assay. FAK from cell lysates is bound to a 96-well ELISA plate or LUMINEX beads by means of a specific antibody (“capturing”), and the tyrosine phosphorylation is detected using a biotin-labelled anti-phosphotyrosine antibody and a streptavidin-peroxidase conjugate by a chemiluminescence method or by means of a fluorescence-labelled anti-phosphotyrosine antibody.
For determination of the activity of kinase inhibitors, cells are pretreated with increasing concentrations of these compounds for 45 min, and the FAK phosphorylation is then determined. As internal control, a concentration series of a reference inhibitor is measured.

Chain of VEGF-2 (P35968 20-1356): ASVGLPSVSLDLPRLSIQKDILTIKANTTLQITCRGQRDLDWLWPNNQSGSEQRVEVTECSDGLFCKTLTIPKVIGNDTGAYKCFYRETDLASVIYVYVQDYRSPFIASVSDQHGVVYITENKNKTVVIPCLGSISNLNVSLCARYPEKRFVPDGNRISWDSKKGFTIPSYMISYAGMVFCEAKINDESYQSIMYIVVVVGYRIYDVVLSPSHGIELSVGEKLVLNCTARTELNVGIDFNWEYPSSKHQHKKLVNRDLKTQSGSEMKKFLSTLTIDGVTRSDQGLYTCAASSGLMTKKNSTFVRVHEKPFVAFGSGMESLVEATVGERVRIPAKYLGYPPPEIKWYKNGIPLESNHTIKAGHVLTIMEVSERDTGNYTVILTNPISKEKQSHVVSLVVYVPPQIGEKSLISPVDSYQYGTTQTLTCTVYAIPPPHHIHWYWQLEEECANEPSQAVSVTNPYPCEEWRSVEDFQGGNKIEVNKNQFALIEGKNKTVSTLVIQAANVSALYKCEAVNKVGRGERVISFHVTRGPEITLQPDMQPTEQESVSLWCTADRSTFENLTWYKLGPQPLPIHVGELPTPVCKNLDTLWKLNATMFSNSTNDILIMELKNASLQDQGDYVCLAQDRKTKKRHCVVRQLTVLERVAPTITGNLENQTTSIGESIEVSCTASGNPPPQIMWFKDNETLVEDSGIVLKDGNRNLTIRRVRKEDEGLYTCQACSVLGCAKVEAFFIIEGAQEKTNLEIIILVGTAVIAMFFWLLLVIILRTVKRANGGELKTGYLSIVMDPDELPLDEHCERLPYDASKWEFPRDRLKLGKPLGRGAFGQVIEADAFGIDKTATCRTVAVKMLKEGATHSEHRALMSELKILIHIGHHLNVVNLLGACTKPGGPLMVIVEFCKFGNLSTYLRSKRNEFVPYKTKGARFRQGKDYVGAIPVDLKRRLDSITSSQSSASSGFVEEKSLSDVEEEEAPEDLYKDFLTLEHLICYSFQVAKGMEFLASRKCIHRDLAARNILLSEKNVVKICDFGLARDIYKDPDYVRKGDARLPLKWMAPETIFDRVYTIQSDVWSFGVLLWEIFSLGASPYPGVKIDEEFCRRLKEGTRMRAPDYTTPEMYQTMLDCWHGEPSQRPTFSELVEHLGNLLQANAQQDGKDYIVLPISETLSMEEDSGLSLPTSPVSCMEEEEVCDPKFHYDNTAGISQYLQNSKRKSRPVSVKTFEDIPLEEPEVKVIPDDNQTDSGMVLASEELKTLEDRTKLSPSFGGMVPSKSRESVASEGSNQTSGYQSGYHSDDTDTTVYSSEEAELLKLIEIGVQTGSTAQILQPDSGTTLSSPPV
Chain of TIE2 (Q02763 23-1124, species assumed): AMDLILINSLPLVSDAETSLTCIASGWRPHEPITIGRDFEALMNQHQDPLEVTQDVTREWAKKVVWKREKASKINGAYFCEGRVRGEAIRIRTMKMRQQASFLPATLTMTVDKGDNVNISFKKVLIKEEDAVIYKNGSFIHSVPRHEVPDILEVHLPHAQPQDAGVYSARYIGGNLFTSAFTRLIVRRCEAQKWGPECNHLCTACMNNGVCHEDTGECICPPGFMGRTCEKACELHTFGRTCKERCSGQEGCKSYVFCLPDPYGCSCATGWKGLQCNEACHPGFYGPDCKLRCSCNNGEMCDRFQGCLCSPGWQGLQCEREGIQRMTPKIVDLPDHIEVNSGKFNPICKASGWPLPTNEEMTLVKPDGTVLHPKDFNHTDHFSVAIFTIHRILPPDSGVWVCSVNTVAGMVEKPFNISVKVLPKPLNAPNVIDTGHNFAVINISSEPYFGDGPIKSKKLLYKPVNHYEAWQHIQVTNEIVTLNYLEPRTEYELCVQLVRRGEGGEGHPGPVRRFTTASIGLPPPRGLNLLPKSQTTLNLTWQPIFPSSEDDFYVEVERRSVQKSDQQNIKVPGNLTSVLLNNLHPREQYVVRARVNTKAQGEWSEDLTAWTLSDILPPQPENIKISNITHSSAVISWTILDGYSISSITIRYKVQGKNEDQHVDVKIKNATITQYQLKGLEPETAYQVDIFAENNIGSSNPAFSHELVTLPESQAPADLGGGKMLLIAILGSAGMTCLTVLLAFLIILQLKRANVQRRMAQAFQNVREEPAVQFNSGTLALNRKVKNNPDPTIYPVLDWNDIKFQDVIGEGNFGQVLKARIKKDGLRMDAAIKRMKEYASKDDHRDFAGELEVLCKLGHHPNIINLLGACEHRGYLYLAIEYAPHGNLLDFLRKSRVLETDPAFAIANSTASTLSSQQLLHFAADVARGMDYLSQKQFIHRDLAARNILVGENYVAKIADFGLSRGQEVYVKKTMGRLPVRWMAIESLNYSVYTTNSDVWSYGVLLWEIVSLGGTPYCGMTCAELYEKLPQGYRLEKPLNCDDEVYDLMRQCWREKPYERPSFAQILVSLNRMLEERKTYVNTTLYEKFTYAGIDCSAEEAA
Chain of PDGFRβ (P09619 33-1106, species assumed): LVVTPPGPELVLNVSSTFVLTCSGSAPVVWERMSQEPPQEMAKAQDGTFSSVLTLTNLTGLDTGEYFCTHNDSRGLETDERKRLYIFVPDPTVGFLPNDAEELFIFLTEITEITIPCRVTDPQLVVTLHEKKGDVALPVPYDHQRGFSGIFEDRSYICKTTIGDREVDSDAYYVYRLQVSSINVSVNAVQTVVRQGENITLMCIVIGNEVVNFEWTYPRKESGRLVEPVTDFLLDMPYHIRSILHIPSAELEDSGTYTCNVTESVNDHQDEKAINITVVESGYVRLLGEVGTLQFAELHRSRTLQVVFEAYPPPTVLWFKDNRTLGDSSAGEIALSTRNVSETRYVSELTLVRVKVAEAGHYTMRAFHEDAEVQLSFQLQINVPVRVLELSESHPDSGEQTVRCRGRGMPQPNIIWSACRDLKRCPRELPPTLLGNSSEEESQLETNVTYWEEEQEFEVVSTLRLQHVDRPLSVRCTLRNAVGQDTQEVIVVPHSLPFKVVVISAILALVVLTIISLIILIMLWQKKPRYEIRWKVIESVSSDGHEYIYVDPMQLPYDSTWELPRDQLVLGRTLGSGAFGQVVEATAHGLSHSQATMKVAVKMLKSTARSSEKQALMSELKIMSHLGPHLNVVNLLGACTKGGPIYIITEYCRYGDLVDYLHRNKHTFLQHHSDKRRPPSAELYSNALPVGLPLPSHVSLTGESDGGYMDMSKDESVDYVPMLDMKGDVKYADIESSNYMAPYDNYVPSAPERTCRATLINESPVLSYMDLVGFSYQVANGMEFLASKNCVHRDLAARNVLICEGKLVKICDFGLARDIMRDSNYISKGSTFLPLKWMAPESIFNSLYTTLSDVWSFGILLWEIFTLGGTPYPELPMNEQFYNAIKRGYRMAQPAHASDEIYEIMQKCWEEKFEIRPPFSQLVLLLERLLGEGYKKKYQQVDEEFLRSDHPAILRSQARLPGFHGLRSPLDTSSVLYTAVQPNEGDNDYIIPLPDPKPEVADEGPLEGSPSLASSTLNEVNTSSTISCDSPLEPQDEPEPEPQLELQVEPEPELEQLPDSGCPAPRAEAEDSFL
T3 sequence (P08069 31-1367): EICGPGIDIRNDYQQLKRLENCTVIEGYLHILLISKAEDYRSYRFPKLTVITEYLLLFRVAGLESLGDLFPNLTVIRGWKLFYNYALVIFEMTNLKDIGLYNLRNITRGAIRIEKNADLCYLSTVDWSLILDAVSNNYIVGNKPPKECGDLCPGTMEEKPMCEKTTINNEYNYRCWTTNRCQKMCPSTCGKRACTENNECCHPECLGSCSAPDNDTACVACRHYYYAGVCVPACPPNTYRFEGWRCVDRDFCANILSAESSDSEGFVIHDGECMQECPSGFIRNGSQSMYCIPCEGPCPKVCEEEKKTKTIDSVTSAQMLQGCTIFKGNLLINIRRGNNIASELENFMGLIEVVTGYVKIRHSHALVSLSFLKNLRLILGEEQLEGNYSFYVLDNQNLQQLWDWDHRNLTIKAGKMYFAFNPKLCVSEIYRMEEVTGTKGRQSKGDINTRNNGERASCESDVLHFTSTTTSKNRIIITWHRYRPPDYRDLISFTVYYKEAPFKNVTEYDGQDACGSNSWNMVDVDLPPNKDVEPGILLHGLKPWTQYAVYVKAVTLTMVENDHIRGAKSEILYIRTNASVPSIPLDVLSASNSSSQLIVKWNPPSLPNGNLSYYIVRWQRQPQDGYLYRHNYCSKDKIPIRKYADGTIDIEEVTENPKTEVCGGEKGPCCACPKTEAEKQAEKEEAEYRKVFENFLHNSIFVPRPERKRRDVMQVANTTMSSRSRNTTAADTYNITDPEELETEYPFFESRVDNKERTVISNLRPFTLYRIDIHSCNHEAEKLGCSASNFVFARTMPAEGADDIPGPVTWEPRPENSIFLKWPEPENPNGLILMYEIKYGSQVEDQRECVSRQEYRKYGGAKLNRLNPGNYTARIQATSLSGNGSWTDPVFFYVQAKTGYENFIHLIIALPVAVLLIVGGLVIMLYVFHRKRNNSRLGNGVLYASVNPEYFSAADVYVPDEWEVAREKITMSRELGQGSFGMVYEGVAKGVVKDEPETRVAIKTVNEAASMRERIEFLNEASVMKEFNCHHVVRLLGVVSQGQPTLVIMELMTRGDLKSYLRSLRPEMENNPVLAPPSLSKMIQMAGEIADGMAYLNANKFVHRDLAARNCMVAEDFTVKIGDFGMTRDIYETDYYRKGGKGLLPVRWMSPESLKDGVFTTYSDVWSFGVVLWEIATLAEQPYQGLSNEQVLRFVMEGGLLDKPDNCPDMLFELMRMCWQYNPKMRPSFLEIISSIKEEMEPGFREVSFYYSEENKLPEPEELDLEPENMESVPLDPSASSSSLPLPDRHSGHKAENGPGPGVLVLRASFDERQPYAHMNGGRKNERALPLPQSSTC
Chain of IGF1R (P08069 31-1367, species assumed): as the sequence (P08069 31-1367) above

Regarding `NCC1CC(n2cc(-c3ccc(N)cc3)c3c(N)ncnc32)C1` (stereo not drawn) [Compound 5], the melting point is 319.5 to 321 °C (dec.). Further, at VEGF-2, the IC50 is 0.63 µM. The IC50 on PDGFRβ stood at 0.63 µM. Further, the IC50 against IGF1R stood at 2.3 µM. For the same molecule, on TGFβR1, the IC50 was determined as 2.9 µM. For the same molecule, the concentration in solution in data set [1] (solubility at 24 h) was 1090 µg/mL (≈ 3.53 mM).

As for `CCCCOc1cccc(-c2cn(C3CC(CN)C3)c3ncnc(N)c23)c1` (stereo not drawn) [Compound 7, 7-(3-Aminomethylcyclobutyl)-5-(3-butoxyphenyl)-7H-pyrrolo[2,3-d]pyrimidin-4-ylamine], the IC50 amounted to 0.91 µM against TIE2, 9.1 µM at VEGF-2 and 1.2 µM against IGF1R. Moreover, the solubility at 24 h in data set [1] worked out at 1120 µg/mL (≈ 3.07 mM).

As for `NCC1CC(n2cc(I)c3c(N)ncnc32)C1` (stereo not drawn) [Compound 52], the IC50 was 2.6 µM against TIE2; 0.25 µM against SGK1; 0.715 µM at VEGF-2; 1.1 µM at PDGFRβ; 7.5 µM on IGF1 receptor (IGF1R).

Consider `NCC1CC(n2cc(-c3ccoc3)c3c(N)ncnc32)C1` (stereo not drawn) [Compound 39], for which the IC50 against SGK1 turned out to be 2.5 µM; in [2] it was 15 µM; against TGFβR1, 8.5 µM.

As to `Cc1csc(-c2cn(C3CC(CN)C3)c3ncnc(N)c23)c1` (stereo not drawn) [Compound 70], the IC50 turned out to be 2.6 µM at TIE2; 4.45 µM on SGK1; 2.5 µM against PDGFRβ; 7.1 µM in data set [2]; 8.5 µM at IGF1 receptor (IGF1R); 1.4 µM against TGFβR1.

Take `NCC1CC(n2cc(-c3cccc(N)c3)c3c(N)ncnc32)C1` (stereo not drawn) [Compound 23]: the 50% inhibitory concentration (IC50) at SGK1 was found to be 1.95 µM; in data set [2], 1.21 µM; against IGF1R it was 7.6 µM; at IGF1 receptor (IGF1R), 14 µM; against TGFβR1 it was 0.81 µM.

With `NCC1CC(n2cc(-c3ccsc3)c3c(N)ncnc32)C1` (stereo not drawn) [Compound 40], the melting point was in the range of 109 to 111 °C. 9.3 µM corresponded to half-maximal inhibition against TIE2 (IC50). At SGK1, this molecule came in with an IC50 of 8.4 µM. Further, 1.8 µM corresponded to half-maximal inhibition on VEGF-2 (IC50). Besides, on PDGFRβ, the IC50 was found to be 0.75 µM. In addition, 2.6 µM corresponded to half-maximal inhibition in data set [2] (IC50). For the same molecule, the IC50 on IGF1 receptor (IGF1R) came out at 18 µM. Also, the IC50 against TGFβR1 amounted to 2.2 µM.

In turn, `Nc1ncnc2c1c(-c1ccc3occc3c1)cn2C1CC(CNC(=O)C(F)(F)F)C1` (stereo not drawn) [Compound 64] returned a melting point of 92 to 93.5 °C. This molecule also showed an IC50 on TIE2 of 2.4 µM. In addition, the half-inhibitory concentration (IC50) against SGK1 was 4.4 µM. Further, half-maximal inhibition against VEGF-2 (IC50) required 1.06 µM. Moreover, the IC50 against PDGFRβ came to 2.45 µM. Further, the IC50 in [2] is 3.6 µM. The same molecule came in with an IC50 at TGFβR1 of 0.33 µM.

On SGK1, `NCC1CC(n2cc(C#CCO)c3c(N)ncnc32)C1` (stereo not drawn) [Compound 47] had an IC50 of 2.55 µM.

Usually IC50 stands for the midpoint of a concentration-inhibition curve. In general, melting point refers to the temperature, or range, at which the solid turns liquid. Broadly, the solubility is the dissolved amount per volume that the medium holds. Read a high solubility as much dissolved substance.
